Results reported in article PMC12281424, “A Rac-specific competitive inhibitor of guanine nucleotide binding reduces metastasis in triple-negative breast cancer” (Cell Reports Medicine, 2025).
“And” between values parts separate entries of the source, which are not always exact repeats. Equal entries are not always repeated.

Legend:
[1] = molecular target: PKA(h) (Homo sapiens, UniProt P17612); assay: Kinase Profiler; assay type: biochemical
Description: (§1) Blood cell counts, kinase profiler, safety screen, bacterial cytotoxicity, Ames, micronucleus assays were performed by the company Eurofins (France). The kinase profiler was performed by the company Eurofins (Discovery, Panlab and Cerep).

[2] = molecular target: DRAK2(h) (Homo sapiens, UniProt O94768); assay: Kinase Profiler; assay type: biochemical
Description: as §1

[3] = molecular target: Glucocorticoid (Homo sapiens, UniProt P04150); assay: Safety screen; assay type: binding
Description: (§2) Blood cell counts, kinase profiler, safety screen, bacterial cytotoxicity, Ames, micronucleus assays were performed by the company Eurofins (France).

[4] = molecular target: MAPK1(h) (Homo sapiens, UniProt P27361); assay: Kinase Profiler; assay type: biochemical
Description: (§3) The kinase profiler was performed by the company Eurofins (Discovery, Panlab and Cerep).

[5] = molecular target: PKBγ(h) (Homo sapiens, UniProt Q9Y243); assay: Kinase Profiler; assay type: biochemical
Description: as §3

[6] = molecular target: Serotonin (5-Hydroxytryptamine) 5-HT1A (Homo sapiens, UniProt P08908); assay: Safety screen; assay type: binding
Description: as §1

[7] = molecular target: EGFR(T790M)(h) (Homo sapiens, UniProt P00533, T790M); assay: Kinase Profiler; assay type: biochemical
Description: as §3

[8] = molecular target: PI3K (p110a/p85a)(h) (Homo sapiens, UniProt P42336); assay: Kinase Profiler; assay type: biochemical
Description: as §3

[9] = system: PI3K (p110a/p65a)(m); assay: Kinase Profiler; assay type: biochemical, mouse
Description: as §1

[10] = molecular target: NEK6(h) (Homo sapiens, UniProt Q9HC98); assay: Kinase Profiler; assay type: biochemical
Description: as §3

[11] = molecular target: Haspin(h) (Homo sapiens, UniProt Q8TF76); assay: Kinase Profiler; assay type: biochemical
Description: as §3

[12] = molecular target: KDR(h) (Homo sapiens, UniProt P35968); assay: Kinase Profiler; assay type: biochemical
Description: as §3

[13] = system: TA98; assay: Bacterial cytotoxicity; assay type: cell-based
Excerpt: Data S2. Bacterial cytotoxicity of A41.
Test Concentration %Effect Cytotoxicity (% of control)

[14] = molecular target: Adrenergic α1A (Rattus norvegicus, UniProt P43140); assay: Safety screen; assay type: binding
Description: as §2

[15] = molecular target: GABAB1A (Homo sapiens, UniProt Q9UBS5); assay: Safety screen; assay type: binding
Description: as §2

[16] = molecular target: SAPK3(h) (Homo sapiens, UniProt P53778); assay: Kinase Profiler; assay type: biochemical
Description: as §3

[17] = molecular target: SAPK4(h) (Homo sapiens, UniProt O15264); assay: Kinase Profiler; assay type: biochemical
Description: as §3

[18] = molecular target: CK1γ3(h) (Homo sapiens, UniProt Q9Y6M4); assay: Kinase Profiler; assay type: biochemical
Description: as §1

[19] = molecular target: IKKε(h) (Homo sapiens, UniProt Q14164); assay: Kinase Profiler; assay type: biochemical
Description: as §1

[20] = molecular target: TBK1(h) (Homo sapiens, UniProt Q9UHD2); assay: Kinase Profiler; assay type: biochemical
Description: as §1

[21] = molecular target: CK1γ2(h) (Homo sapiens, UniProt P78368); assay: Kinase Profiler; assay type: biochemical
Description: as §1

[22] = system: CK1(y); assay: Kinase Profiler; assay type: biochemical, yeast
Description: as §3

[23] = molecular target: Rsk2(h) (Homo sapiens, UniProt P51812); assay: Kinase Profiler; assay type: biochemical
Description: as §3

[24] = molecular target: MST2(h) (Homo sapiens, UniProt Q13188); assay: Kinase Profiler; assay type: biochemical
Description: as §1

[25] = molecular target: MLK3(h) (Homo sapiens, UniProt Q16584); assay: Kinase Profiler; assay type: biochemical
Description: as §1

[26] = molecular target: ATM(h) (Homo sapiens, UniProt Q13315); assay: Kinase Profiler; assay type: biochemical
Description: as §3

[27] = molecular target: mTOR(h) (Homo sapiens, UniProt P42345); assay: Kinase Profiler; assay type: biochemical
Description: as §3

[28] = molecular target: ULK3(h) (Homo sapiens, UniProt Q6PHR2); assay: Kinase Profiler; assay type: biochemical
Description: as §1

[29] = molecular target: Lck(h) activated (Homo sapiens, UniProt P06239); assay: Kinase Profiler; assay type: biochemical
Description: as §3

[30] = molecular target: MELK(h) (Homo sapiens, UniProt Q14680); assay: Kinase Profiler; assay type: biochemical
Description: as §3

[31] = molecular target: LIMK1(h) (Homo sapiens, UniProt P53667); assay: Kinase Profiler; assay type: biochemical
Description: as §3

[32] = molecular target: SIK2(h) (Homo sapiens, UniProt Q9H0K1); assay: Kinase Profiler; assay type: biochemical
Description: as §3

[33] = molecular target: NEK1(h) (Homo sapiens, UniProt Q96PY6); assay: Kinase Profiler; assay type: biochemical
Description: as §3

[34] = molecular target: SIK(h) (Homo sapiens, UniProt P57059); assay: Kinase Profiler; assay type: biochemical
Description: as §3

[35] = molecular target: PKCγ(h) (Homo sapiens, UniProt P05129); assay: Kinase Profiler; assay type: biochemical
Description: as §3

[36] = molecular target: Serotonin (5-Hydroxytryptamine) 5-HT2A (Homo sapiens, UniProt P28223); assay: Safety screen; assay type: binding
Description: as §1

[37] = molecular target: CDK4/cyclinD3(h) (Homo sapiens, UniProt P11802); assay: Kinase Profiler; assay type: biochemical
Description: as §1

[38] = system: Sodium Channel, Site 2; assay: Safety screen; assay type: binding, rat
Description: as §2

Chain of CDK4/cyclinD3(h) (P11802 whole entry): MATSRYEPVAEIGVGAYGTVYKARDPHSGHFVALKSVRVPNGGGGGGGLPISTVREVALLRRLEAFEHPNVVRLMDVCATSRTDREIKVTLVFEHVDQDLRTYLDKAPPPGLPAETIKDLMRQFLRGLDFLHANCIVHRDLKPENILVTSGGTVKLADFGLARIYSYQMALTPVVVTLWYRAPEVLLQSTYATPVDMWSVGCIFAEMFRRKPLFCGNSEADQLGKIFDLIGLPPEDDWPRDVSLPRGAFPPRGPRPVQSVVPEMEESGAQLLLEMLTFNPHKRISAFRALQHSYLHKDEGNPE
Chain of CDK4/cyclinD3(h) (P30281 whole entry partner): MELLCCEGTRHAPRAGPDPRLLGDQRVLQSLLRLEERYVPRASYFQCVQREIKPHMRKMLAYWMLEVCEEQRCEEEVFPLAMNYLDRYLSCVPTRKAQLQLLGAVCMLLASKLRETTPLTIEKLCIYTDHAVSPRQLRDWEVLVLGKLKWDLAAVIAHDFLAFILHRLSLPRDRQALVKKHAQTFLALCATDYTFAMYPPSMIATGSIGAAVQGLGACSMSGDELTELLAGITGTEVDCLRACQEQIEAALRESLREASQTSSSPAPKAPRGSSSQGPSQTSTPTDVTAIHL
Chain of Adrenergic α1A (P43140 whole entry): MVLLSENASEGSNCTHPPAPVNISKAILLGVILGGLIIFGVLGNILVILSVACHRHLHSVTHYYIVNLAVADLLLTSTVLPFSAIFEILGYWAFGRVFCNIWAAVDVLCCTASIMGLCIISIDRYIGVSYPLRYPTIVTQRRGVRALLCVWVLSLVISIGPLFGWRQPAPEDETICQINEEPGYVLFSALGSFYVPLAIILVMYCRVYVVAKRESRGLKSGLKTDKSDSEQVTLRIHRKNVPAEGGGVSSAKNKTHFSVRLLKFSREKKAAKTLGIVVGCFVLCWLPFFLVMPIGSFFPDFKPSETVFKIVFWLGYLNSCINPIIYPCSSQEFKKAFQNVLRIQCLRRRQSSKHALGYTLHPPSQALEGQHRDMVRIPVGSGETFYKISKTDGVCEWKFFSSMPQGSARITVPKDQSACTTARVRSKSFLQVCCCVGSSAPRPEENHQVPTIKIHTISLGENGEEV
Chain of Glucocorticoid (P04150 whole entry): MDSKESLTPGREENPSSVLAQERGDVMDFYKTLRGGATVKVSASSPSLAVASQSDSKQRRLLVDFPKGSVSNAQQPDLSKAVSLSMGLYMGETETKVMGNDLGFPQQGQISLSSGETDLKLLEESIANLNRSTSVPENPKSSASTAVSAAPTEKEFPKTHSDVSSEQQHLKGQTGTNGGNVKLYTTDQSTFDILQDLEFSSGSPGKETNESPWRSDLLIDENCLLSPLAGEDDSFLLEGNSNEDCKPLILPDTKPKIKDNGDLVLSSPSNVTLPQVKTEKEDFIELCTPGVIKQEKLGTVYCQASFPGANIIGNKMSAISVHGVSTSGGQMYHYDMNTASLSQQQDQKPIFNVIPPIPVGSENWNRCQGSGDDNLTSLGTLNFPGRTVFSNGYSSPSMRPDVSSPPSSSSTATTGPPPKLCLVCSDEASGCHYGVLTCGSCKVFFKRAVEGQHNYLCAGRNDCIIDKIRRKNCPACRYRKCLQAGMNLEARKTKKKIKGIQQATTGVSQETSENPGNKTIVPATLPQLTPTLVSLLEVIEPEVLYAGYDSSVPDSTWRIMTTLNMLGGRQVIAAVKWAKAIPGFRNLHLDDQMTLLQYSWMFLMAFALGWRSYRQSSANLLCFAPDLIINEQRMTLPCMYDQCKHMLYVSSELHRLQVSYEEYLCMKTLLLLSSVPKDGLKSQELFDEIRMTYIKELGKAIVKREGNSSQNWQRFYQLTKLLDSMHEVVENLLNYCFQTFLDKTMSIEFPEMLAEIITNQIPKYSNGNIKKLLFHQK
Chain of Haspin(h) (Q8TF76 whole entry): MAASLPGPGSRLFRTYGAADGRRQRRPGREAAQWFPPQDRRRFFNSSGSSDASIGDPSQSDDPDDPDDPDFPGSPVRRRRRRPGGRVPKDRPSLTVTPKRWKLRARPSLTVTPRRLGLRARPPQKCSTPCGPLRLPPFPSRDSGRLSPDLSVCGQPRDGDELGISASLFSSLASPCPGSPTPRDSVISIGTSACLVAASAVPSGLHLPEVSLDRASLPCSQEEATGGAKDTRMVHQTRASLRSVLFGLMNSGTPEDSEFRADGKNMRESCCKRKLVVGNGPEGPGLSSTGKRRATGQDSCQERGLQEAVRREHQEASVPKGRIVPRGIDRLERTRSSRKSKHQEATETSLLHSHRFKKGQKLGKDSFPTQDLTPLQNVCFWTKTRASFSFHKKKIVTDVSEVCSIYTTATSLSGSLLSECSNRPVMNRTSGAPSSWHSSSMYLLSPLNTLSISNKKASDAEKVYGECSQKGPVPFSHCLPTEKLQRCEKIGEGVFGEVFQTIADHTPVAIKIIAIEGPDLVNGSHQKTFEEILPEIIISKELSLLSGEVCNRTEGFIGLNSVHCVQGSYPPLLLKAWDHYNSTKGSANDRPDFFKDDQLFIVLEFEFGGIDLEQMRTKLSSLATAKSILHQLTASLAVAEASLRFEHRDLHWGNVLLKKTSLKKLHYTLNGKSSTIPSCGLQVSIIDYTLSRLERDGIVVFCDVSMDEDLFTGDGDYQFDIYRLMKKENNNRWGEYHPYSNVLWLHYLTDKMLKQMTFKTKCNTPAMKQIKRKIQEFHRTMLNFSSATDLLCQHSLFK
Chain of SAPK3(h) (P53778 whole entry): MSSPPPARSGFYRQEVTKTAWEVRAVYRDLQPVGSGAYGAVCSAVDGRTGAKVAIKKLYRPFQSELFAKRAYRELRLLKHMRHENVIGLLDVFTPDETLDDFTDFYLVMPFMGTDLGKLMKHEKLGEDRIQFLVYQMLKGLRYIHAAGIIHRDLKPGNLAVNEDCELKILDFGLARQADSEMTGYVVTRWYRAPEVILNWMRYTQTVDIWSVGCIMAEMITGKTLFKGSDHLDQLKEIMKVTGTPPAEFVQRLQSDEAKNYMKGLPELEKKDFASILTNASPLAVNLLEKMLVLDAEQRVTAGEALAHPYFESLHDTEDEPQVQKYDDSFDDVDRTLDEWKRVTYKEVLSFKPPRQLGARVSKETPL
Chain of KDR(h) (P35968 20-1356): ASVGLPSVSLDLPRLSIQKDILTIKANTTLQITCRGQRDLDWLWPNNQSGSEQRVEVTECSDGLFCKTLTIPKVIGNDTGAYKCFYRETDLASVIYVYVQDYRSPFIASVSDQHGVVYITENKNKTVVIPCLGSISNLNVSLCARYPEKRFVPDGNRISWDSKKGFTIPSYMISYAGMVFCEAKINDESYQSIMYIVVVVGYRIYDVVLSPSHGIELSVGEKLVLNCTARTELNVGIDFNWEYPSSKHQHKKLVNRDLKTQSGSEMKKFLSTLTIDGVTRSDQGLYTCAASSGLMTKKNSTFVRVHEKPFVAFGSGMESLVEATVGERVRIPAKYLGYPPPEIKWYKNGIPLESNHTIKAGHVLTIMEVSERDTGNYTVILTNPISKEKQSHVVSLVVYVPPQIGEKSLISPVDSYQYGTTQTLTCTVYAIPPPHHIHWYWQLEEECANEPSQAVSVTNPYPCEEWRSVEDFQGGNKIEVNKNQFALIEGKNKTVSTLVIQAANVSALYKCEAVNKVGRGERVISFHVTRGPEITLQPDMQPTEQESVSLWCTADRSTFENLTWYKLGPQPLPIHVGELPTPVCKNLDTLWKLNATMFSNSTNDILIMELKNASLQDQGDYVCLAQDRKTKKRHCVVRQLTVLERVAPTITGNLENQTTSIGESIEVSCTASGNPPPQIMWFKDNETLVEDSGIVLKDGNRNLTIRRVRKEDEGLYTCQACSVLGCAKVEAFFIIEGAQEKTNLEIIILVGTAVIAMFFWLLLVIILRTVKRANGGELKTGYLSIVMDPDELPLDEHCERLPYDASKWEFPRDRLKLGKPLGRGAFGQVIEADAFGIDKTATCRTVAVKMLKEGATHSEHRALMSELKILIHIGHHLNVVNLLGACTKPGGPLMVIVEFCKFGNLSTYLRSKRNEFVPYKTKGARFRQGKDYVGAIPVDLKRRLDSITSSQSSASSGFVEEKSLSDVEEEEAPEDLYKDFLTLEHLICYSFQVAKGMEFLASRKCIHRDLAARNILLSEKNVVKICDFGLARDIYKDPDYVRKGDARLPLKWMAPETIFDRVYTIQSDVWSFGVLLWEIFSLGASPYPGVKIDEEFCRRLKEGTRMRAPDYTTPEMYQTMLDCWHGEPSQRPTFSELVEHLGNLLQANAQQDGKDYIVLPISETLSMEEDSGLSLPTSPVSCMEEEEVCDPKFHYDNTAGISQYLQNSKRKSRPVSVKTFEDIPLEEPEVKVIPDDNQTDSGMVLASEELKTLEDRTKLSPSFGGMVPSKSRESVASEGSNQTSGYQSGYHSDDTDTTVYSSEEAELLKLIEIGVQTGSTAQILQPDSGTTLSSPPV
Chain of MAPK1(h) (P27361 whole entry): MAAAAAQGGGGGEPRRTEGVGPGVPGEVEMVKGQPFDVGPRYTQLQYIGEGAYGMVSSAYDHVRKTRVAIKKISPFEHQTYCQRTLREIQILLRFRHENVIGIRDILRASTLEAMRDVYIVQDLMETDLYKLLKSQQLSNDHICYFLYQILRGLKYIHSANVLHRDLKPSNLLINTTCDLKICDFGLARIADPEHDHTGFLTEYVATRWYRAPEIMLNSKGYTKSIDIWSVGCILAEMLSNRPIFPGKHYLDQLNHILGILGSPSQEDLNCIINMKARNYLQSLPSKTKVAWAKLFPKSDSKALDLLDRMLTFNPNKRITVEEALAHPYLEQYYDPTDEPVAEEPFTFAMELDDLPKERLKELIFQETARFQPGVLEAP

COc1ccc(OC)c(NS(=O)(=O)c2ccc(NC(=O)CCSc3ccc(C)cc3)cc2)c1 [Compound A41]
Activity(%) [1]: 84% | Activity(%) [2]: 90% | % inh. [3]: 17% | Activity(%) [4]: 103% | Activity(%) [5]: 98% | % inh. [6]: 6% | Activity(%) [7]: 113% | Activity(%) [8]: 100% | Activity(%) [9]: 100% | Activity(%) [10]: 109% | Activity(%) [11]: 116% | Activity(%) [12]: 113% | %Effect, single replicates (1st, 2nd, 3rd) ([13]; - S9, 1.0E-04 M): 154.6% and 177.5% and 143.7% | Cytotoxicity (% of control), Mean %Effect ([13]; - S9, 1.0E-04 M): 158.6% | %Effect, single replicates (1st, 2nd, 3rd) ([13]; - S9, 1.0E-05 M): 82.4% and 76.9% and 77.8% | Cytotoxicity (% of control), Mean %Effect ([13]; - S9, 1.0E-05 M): 79.0% | %Effect, single replicates (1st, 2nd, 3rd) ([13]; - S9, 1.2E-06 M): 89.7% and 74.1% and 55.8% | Cytotoxicity (% of control), Mean %Effect ([13]; - S9, 1.2E-06 M): 73.2% | %Effect, single replicates (1st, 2nd, 3rd) ([13]; - S9, 2.5E-05 M): 95.2% and 92.4% and 83.3% | Cytotoxicity (% of control), Mean %Effect ([13]; - S9, 2.5E-05 M): 90.3% | %Effect, single replicates (1st, 2nd, 3rd) ([13]; - S9, 2.5E-06 M): 80.5% and 83.3% and 82.4% | Cytotoxicity (% of control), Mean %Effect ([13]; - S9, 2.5E-06 M): 82.0% | %Effect, single replicates (1st, 2nd, 3rd) ([13]; - S9, 5.0E-05 M): 88.8% and 83.3% and 75.9% | Cytotoxicity (% of control), Mean %Effect ([13]; - S9, 5.0E-05 M): 82.7% | %Effect, single replicates (1st, 2nd, 3rd) ([13]; - S9, 5.0E-06 M): 88.8% and 84.2% and 81.4% | Cytotoxicity (% of control), Mean %Effect ([13]; - S9, 5.0E-06 M): 84.8% | %Effect, single replicates (1st, 2nd, 3rd) ([13]; - S9, 6.0E-07 M): 92.4% and 82.4% (2×) | Cytotoxicity (% of control), Mean %Effect ([13]; - S9, 6.0E-07 M): 85.7% | % inh. [14]: 34% | % inh. [15]: -6% | Activity(%) [16]: 105% | Activity(%) [17]: 104% | Activity(%) [18]: 101% | Activity(%) [19]: 106% | Activity(%) [20]: 102% | Activity(%) [21]: 112% | Activity(%) [22]: 98% | Activity(%) [23]: 86% | Activity(%) [24]: 88% | Activity(%) [25]: 115% | Activity(%) [26]: 114% | Activity(%) [27]: 101% | Activity(%) [28]: 97% | Activity(%) [29]: 90% | Activity(%) [30]: 107% | Activity(%) [31]: 113% | Activity(%) [32]: 90% | Activity(%) [33]: 104% | Activity(%) [34]: 144% | Activity(%) [35]: 112% | % inh. [36]: 84% | Activity(%) [37]: 96% | % inh. [38]: 57%
